From US20250115597A1, “TYK2 INHIBITORS AND COMPOSITIONS AND METHODS THEREOF” (LYNK PHARMACEUTICALS CO. LTD., priority 2021, published 2025)
Read-outs that look alike come from different tables or passages of the source.

Assays:
TYK2-JH2 domain = target: T1, TYK2-JH2 domain (Homo sapiens, UniProt P29597); test: Binding activity test for JH2 domain of TYK2 (Tb-antibody/tracer FRET); conditions: for JAK1/TYK2 selectivity: ratio JAK1-JH2 IC50 / TYK2-JH2 IC50
T1 construct: IC50 on JH2 domain activity (nM)
T1 sequence (P29597 589-875 limits assumed): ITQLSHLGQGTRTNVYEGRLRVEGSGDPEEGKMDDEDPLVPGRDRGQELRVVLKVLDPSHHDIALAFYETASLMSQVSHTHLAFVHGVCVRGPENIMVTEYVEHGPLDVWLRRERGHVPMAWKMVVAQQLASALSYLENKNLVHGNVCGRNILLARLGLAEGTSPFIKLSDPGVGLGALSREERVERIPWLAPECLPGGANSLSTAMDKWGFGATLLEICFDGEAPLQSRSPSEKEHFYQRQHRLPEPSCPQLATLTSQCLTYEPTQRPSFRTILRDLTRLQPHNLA
How it was run: (§1)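 Compounds tested as 11-point 3-fold serial dilutions against the JH2 domain in a Tb-antibody/tracer FRET binding format. Plates incubated 60 min at 25° C, then overnight at 4° C, before FRET reading.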

JAK1-JH2 domain = target: T2, JAK1-JH2 domain (Homo sapiens, UniProt P23458); test: Binding activity test for JH2 domain of JAK1 (Tb-antibody/tracer FRET)
T2 construct: IC50 on JH2 domain activity (nM)
T2 sequence (P23458 583-855 limits assumed): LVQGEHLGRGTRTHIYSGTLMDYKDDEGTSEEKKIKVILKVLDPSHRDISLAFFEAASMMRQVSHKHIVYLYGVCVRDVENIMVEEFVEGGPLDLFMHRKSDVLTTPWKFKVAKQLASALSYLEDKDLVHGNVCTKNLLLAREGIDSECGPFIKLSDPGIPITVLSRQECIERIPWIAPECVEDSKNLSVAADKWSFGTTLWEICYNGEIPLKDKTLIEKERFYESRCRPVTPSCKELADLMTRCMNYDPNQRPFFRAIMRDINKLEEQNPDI
How it was run: as §1

pSTAT1 = test: Phosphorylation inhibition of STAT in human whole blood, IFN-alpha stimulated (flow cytometry); type: cell-based; conditions: 20 min; human whole blood, IFN-alpha 20 mins, CD3 cells; read-out: IC50 on pSTAT1 inhibition in h WB
How it was run: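 Freshly prepared PBMC or freshly collected whole blood stimulated with human Universal Type I IFN-alpha for 20 min, then fixed, permeabilized on ice and stained for CD3 and pSTAT1 (Y701). pSTAT1 read by flow cytometry; IC50 from 4-parameter logistic fit.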

[1] = Microsomal metabolic stability assay; type: in vitro ADME; conditions: pH 7.4, 0.5 mg/mL protein, 1 μM compound
How it was run: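 Test article at 1 μM with 0.5 mg/mL microsomal protein and 2 mM NADPH, in 100 mM potassium phosphate pH 7.4 with 1.0 mM EDTA at 37 °C. Sampled at 0–45 min and quantified by LC/MS/MS. T1/2 from the slope of ln % remaining vs time.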

[2] = Hepatocytes metabolic stability assay; type: in vitro ADME; conditions: cryopreserved hepatocytes, human hepatocytes, 1.0×10^6 cells/mL; for CLint scaled at 1 μM: read-out: Human hepatocyte Clint(liver); for half-life at 1 μM: read-out: Human hepatocyte stability T1/2
How it was run: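 Cryopreserved hepatocytes (1.0×10^6 cells/mL final) were incubated with test compound at 1 μM at 37 °C and sampled at 0, 15, 30, 60 and 120 min, with acetonitrile quench and LC-MS/MS. k came from log-linear % remaining versus time, giving T1/2 and CLint.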

[3] = dog liver microsomes, read-out: Dog LM Clint
[4] = dog liver microsomes, read-out: Dog LM T½
[5] = human liver microsomes, read-out: Human LM Clint
[6] = human liver microsomes, read-out: Human LM T½
[7] = rat liver microsomes, read-out: Rat LM Clint
[8] = rat liver microsomes, read-out: Rat LM T½

SMILES | IC50 (TYK2-JH2 domain) [nM] | JAK1/TYK2 selectivity (TYK2-JH2 domain) | IC50 (JAK1-JH2 domain) [nM] | IC50 (pSTAT1) [nM] | microsomal CLint at 1 μM [1, 3] [µL/min/mg] | half-life at 1 μM [1, 4] [min] | microsomal CLint at 1 μM [1, 5] [µL/min/mg] | half-life at 1 μM [1, 6] [min] | microsomal CLint at 1 μM [1, 7] [µL/min/mg] | half-life at 1 μM [1, 8] [min] | CLint scaled at 1 μM [2] [mL/min/kg] | half-life at 1 μM [2] [min]
[2H]C([2H])([2H])NC(=O)c1cnc(Nc2ccc(F)cn2)cc1Nc1nn(C)c2ccn(CC)c(=O)c12 [Example 139, 4-((5-Ethyl-1-methyl-4-oxo-4,5-dihydro-1H-pyrazolo[4,3-c]pyridin-3-yl)amino)-6-((5-fluoropyridin-2-yl)amino)-N-(methyl-d3)nicotinamide] | 0.524 | 23.6 | 12.4 | 1180 |  |  | 23.3 | 59.8 |  |  | < 7.35 | > 240
[2H]C([2H])([2H])NC(=O)c1cnc(NC(=O)C2CC2)cc1Nc1ccn2ncc(C#N)c2c1OC [Example 165, 4-((3-Cyano-4-methoxypyrazolo[1,5-a]pyridin-5-yl)amino)-6-(cyclopropanecarboxamido)-N-(methyl-d3)nicotinamide] | 0.278 | 67.0 | 18.6 | 284 | 14.3 | 99.7 | 36.9 | 38 | 43.6 | 32 | < 7.35 | > 240
[2H]C([2H])([2H])NC(=O)c1cnc(NC(=O)C2CC2)cc1Nc1ncc2cnn(CC)c2c1OC [Example 262, 6-(Cyclopropanecarboxamido)-4-((1-ethyl-7-methoxy-1H-pyrazolo[4,3-c]pyridin-6-yl)amino)-N-(methyl-d3)nicotinamide] | 0.22 | 67.1 | 14.8 | 102 |  |  |  |  |  |  | 18.5 | 95.2

More lines, now with the values ahead:

IC50 (TYK2-JH2 domain) [nM] | JAK1/TYK2 selectivity (TYK2-JH2 domain) | IC50 (JAK1-JH2 domain) [nM] | IC50 (pSTAT1) [nM] | microsomal CLint at 1 μM [1, 3] [µL/min/mg] | half-life at 1 μM [1, 4] [min] | microsomal CLint at 1 μM [1, 5] [µL/min/mg] | half-life at 1 μM [1, 6] [min] | microsomal CLint at 1 μM [1, 7] [µL/min/mg] | half-life at 1 μM [1, 8] [min] | CLint scaled at 1 μM [2] [mL/min/kg] | half-life at 1 μM [2] [min] | SMILES
0.286 | 34.6 | 9.89 | 219 | 66.8 | 20.7 | 19.4 | 71.5 | 111 | 12.5 | 43.1 | 89.4 | [2H]C([2H])([2H])NC(=O)c1cnc(NC(=O)C2CC2)cc1Nc1ccc2cnn(CC)c2c1OC [Example 44, 6-(Cyclopropanecarboxamido)-4-((1-ethyl-7-methoxy-1H-indazol-6-yl)amino)-N-(methyl-d3)nicotinamide]
0.416 | 49.9 | 20.8 | 395 | 48.6 | 28.5 | 40 | 34.6 | 87.4 | 15.9 |  |  | [2H]C([2H])([2H])NC(=O)c1cnc(NC(=O)C2CC2)cc1Nc1ccc2cnn(CC(F)(F)F)c2c1OC [Example 129, 6-(Cyclopropanecarboxamido)-4-((7-methoxy-1-(2,2,2-trifluoroethyl)-1H-indazol-6-yl)amino)-N-(methyl-d3)nicotinamide]
